{"source": "patent US9980486B2", "about": "“Herbicidal quinolines” (Syngenta Participations AG, priority 2014, dated 2018)", "type_in_all_cases": "in vivo", "key": {"[1]": {"test_system": "Echinochloa crus-galli (ECHCG)", "experiment": "Experiment B1 glasshouse herbicide test, pre- and post-emergence, percentage damage", "conditions": "1000 g/h, evaluated after 13 days", "description": "(§1) Seeds of a variety of test species are sown in standard soil in pots (Lolium perenne (LOLPE), Solanum nigrum (SOLNI), Amaranthus retoflexus (AMARE), Setaria faberi (SETFA), Echinochloa crus-galli (ECHCG), Ipomoea hederacea (IPOHE)). After cultivation for one day (pre-emergence) or after 8 days cultivation (post-emergence) under controlled conditions in a glasshouse (at 24/16° C., day/night; 14 hours light; 65% humidity), the plants are sprayed with an aqueous spray solution derived from the formulation of the technical active ingredient in acetone/water (50:50) solution containing 0.5% Tween 20 (polyoxyethelyene sorbitan monolaurate, CAS RN 9005-64-5). […] The test plants are then grown in a glasshouse under controlled conditions in a glasshouse (at 24/16° C., day/night; 14 hours light; 65% humidity) and watered twice daily. After 13 days for pre and post-emergence, the test is evaluated for the percentage damage caused to the plant. The biological activities are shown in the following table on a five point scale (5=80-100%; 4=60-79%; 3=40-59%; 2=20-39%; 1=0-19%)."}, "[2]": {"test_system": "Ipomoea hederacea (IPOHE)", "experiment": "Experiment B1 glasshouse herbicide test, pre- and post-emergence, percentage damage", "conditions": "1000 g/h, evaluated after 13 days", "description": "as §1"}, "Lolium perenne (LOLPE)": {"test_system": "Lolium perenne (LOLPE)", "experiment": "Experiment B1 glasshouse herbicide test, pre- and post-emergence, percentage damage", "conditions": "1000 g/h, evaluated after 13 days", "description": "as §1"}, "Setaria faberi (SETFA)": {"test_system": "Setaria faberi (SETFA)", "experiment": "Experiment B1 glasshouse herbicide test, pre- and post-emergence, percentage damage", "conditions": "1000 g/h, evaluated after 13 days", "description": "as §1"}, "[3]": {"test_system": "Amaranthus retoflexus (AMARE)", "experiment": "Experiment B1 glasshouse herbicide test, pre- and post-emergence, percentage damage", "conditions": "1000 g/h, evaluated after 13 days", "description": "as §1"}, "Solanum nigrum (SOLNI)": {"test_system": "Solanum nigrum (SOLNI)", "experiment": "Experiment B1 glasshouse herbicide test, pre- and post-emergence, percentage damage", "conditions": "1000 g/h, evaluated after 13 days", "description": "as §1"}, "[4]": {"test_system": "Eriochloa villosa (ERBVI)", "experiment": "Experiment B2 comparative glasshouse herbicide test, pre- and post-emergence, phytotoxicity", "description": "(§2) A comparative test is performed to compare the efficacy of quinoline compounds of the present invention with quinoline compounds taught in WO2014/037342 and napthyridines taught in WO2013/092834. Seeds of a variety of test species were sown in standard soil in pots. After cultivation for one day (pre-emergence) or after 10 days cultivation (post-emergence) under controlled conditions in a glasshouse (at 24/16° C., day/night; 14 hours light; 65% humidity), the plants were sprayed with an aqueous spray solution derived from the formulation of the technical active ingredient in 0.6 ml acetone and 45 ml formulation solution containing 10.6% Emulsogen EL (Registry number 61791-12-6), 42.2% N-methyl pyrrolidone, 42.2% dipropylene glycol monomethyl ether (CAS RN 34590-94-8) and 0.2% X-77 (CAS RN 11097-66-8). The test plants were then grown in a glasshouse under controlled conditions in a glasshouse (at 24/16° C., day/night; 14 hours light; 65% humidity) and watered twice daily. After 14 days for post-emergence and 21 days for pre-emergence and phytotoxicity evaluated using a five point scale (5=80-100%; 4=60-79%; 3=40-59%; 2=20-39%; 1=0-19%). Test Plants:—Eriochloa villosa (ERBVI), Panicum miliaceum (PANMI)."}, "[5]": {"test_system": "Panicum miliaceum (PANMI)", "experiment": "Experiment B2 comparative glasshouse herbicide test, pre- and post-emergence, phytotoxicity", "description": "as §2"}, "[6]": {"conditions": "POST Application (post-emergence, after 8 days cultivation)"}, "[7]": {"conditions": "PRE Application (pre-emergence, after cultivation for one day)"}, "[8]": {"conditions": "POST Application (60 g/ha), after 10 days cultivation, evaluated after 14 days"}, "[9]": {"conditions": "PRE Application (250 g/ha), after cultivation for one day, evaluated after 21 days"}}}
{"compound": "Cn1nnnc1NC(=O)c1cc2cccnc2c(-c2ccccc2)c1C(F)(F)F", "note": "[Compound 1.001, N-(1-methyltetrazol-5-yl)-8-phenyl-7-(trifluoromethyl)-quinoline-6-carboxamide]", "values": [{"measurement": "percentage damage caused to the plant, five point scale, ECHCG", "setting": "[1]; [6]", "value": "5 (5=80-100%)"}, {"measurement": "percentage damage caused to the plant, five point scale, ECHCG", "setting": "[1]; [7]", "value": "5 (5=80-100%)"}, {"measurement": "percentage damage caused to the plant, five point scale, IPOHE", "setting": "[2]; [6]", "value": "5 (5=80-100%)"}, {"measurement": "percentage damage caused to the plant, five point scale, IPOHE", "setting": "[2]; [7]", "value": "5 (5=80-100%)"}, {"measurement": "percentage damage caused to the plant, five point scale, LOLPE", "setting": "Lolium perenne (LOLPE); [6]", "value": "5 (5=80-100%)"}, {"measurement": "percentage damage caused to the plant, five point scale, LOLPE", "setting": "Lolium perenne (LOLPE); [7]", "value": "5 (5=80-100%)"}, {"measurement": "percentage damage caused to the plant, five point scale, SETFA", "setting": "Setaria faberi (SETFA); [6]", "value": "5 (5=80-100%)"}, {"measurement": "percentage damage caused to the plant, five point scale, SETFA", "setting": "Setaria faberi (SETFA); [7]", "value": "5 (5=80-100%)"}, {"measurement": "percentage damage caused to the plant, five point scale, AMARE", "setting": "[3]; [6]", "value": "5 (5=80-100%)"}, {"measurement": "percentage damage caused to the plant, five point scale, AMARE", "setting": "[3]; [7]", "value": "5 (5=80-100%)"}, {"measurement": "percentage damage caused to the plant, five point scale, SOLNI", "setting": "Solanum nigrum (SOLNI); [6]", "value": "5 (5=80-100%)"}, {"measurement": "percentage damage caused to the plant, five point scale, SOLNI", "setting": "Solanum nigrum (SOLNI); [7]", "value": "5 (5=80-100%)"}, {"measurement": "phytotoxicity, five point scale, ERBVI", "setting": "[4]; [8]", "value": "5 (5=80-100%)"}, {"measurement": "phytotoxicity, five point scale, ERBVI", "setting": "[4]; [9]", "value": "3 (3=40-59%)"}, {"measurement": "phytotoxicity, five point scale, PANMI", "setting": "[5]; [8]", "value": "5 (5=80-100%)"}, {"measurement": "phytotoxicity, five point scale, PANMI", "setting": "[5]; [9]", "value": "5 (5=80-100%)"}]}
